The target in this assay is T1, human factor XIIIa (Homo sapiens, UniProt P00488).
T1 sequence (P00488 39-732 limits assumed): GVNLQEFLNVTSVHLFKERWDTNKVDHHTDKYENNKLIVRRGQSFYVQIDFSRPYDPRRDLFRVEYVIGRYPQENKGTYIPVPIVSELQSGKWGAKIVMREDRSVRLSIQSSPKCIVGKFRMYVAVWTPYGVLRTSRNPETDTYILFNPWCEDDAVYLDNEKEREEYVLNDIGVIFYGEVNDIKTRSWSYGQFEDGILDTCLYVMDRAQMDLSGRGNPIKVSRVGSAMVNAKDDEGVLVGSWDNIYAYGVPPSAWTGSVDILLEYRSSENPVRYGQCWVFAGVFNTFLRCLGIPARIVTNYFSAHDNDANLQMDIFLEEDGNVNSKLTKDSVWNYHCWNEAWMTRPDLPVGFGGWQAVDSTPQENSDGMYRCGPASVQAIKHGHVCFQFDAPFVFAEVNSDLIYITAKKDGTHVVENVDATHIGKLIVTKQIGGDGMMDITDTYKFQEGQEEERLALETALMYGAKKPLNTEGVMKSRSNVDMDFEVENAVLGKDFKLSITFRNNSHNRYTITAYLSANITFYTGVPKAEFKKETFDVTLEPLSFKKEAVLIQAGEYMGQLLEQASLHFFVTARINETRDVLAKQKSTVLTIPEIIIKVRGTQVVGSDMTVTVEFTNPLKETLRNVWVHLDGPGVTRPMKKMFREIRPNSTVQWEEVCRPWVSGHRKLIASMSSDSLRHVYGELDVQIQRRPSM
In words: bi-substrate, fluorescence-based trans-glutamination assay. In kind it is biochemical. As to conditions: pH 7.4, 37° C., 10 min incubation, N,N-dimethylcasein and dansylcadaverine substrates; read-out: FXIIIa IC50. The protocol:
To evaluate the effect of inhibitor on human factor XIIIa (and other transglutaminases), a bi-substrate, fluorescence-based trans-glutamination assay was performed. Generally, 1 μL of inhibitor was diluted with 87 μL of pH 7.4 buffer (50 mM Tris-HCl, 1 mM CaCl2, 100 mM NaCl, and 2 mg/mL N,N-dimethylcasein) and 5 μL dithiothreitol (20 mM) at 37° C. followed by the addition of 2 μL of human factor XIIIa (0.3 μM) and incubation for 10 min. The activity of factor XIIIa was monitored following the addition of 5 μL of dansylcadaverine (2 mM) by measuring the initial rate of increase in fluorescence emission (λEx.=360 nm and λEm.=490 nm). Relative residual factor XIIIa activity at each concentration of the inhibitor was calculated from the ratio of factor XIIIa activity in the presence and absence of the inhibitor. Logistic Eq. 1 was used to fit the concentration dependence of residual […] activity so as to obtain the potency (IC50) and efficacy (ΔY %) of inhibition.
In this equation, Y is the ratio of residual […] activity in the presence of inhibitor to that in its absence, YM and Y0 are the maximum and minimum possible values of the fractional residual factor XIIIa activity, IC50 is the concentration of the inhibitor that leads to 50% inhibition of enzyme activity, and HS is the Hill slope. YM, Y0, IC50, and HS values are determined by nonlinear curve fitting of the data. The data is shown in FIG. 2 (top panel) and Table 1 below: […]
In the case of `C=C(CC)C(=O)c1ccc(OCC(=O)O)c(Cl)c1Cl` [Formula II, 2-(2,3-dichloro-4-(2-methylenebutanoyl)phenoxy)acetic acid], the IC50 came out at 105 µM.
The result for `C=C(CC)C(=O)c1ccc(OCC(=O)OC)c(Cl)c1Cl` [Formula III, methyl 2-(2,3-dichloro-4-(2-methylenebutanoyl)phenoxy)acetate] reads 92 µM.
On to `C=C(CC)C(=O)c1ccc(OCC(=O)NC)c(Cl)c1Cl` [Formula IV, 2-(2,3-dichloro-4-(2-methylenebutanoyl)phenoxy)-N-methylacetamide], for which the IC50 stood at 100 µM.
Turning to `C=C(CC)C(=O)c1ccc(OCC(=O)N(C)C)c(Cl)c1Cl` [Formula V, 2-(2,3-dichloro-4-(2-methylenebutanoyl)phenoxy)-N,N-dimethylacetamide], the IC50 was 75 µM.
The result for `C=C(CC)C(=O)c1c(Cl)cc(OCC(=O)O)cc1Cl` [Formula VI, 2-(3,5-dichloro-4-(2-methylenebutanoyl)phenoxy)acetic acid] reads 51 µM; that for `C=CC(=O)c1ccc(OCC(=O)O)c(Cl)c1Cl` [Formula VII, 2-(4-acryloyl-2,3-dichlorophenoxy)acetic acid], 83 µM.
Take `C=CC(=O)c1c(Cl)cc(OCC(=O)N(C)C)cc1Cl` [Formula VIII, 2-(4-acryloyl-3,5-dichlorophenoxy)-N,N-dimethylacetamide]: the IC50 is 24 µM.

The values are drawn from patent US20240010602A1, “PHENYL UNSATURATED KETONES AS HUMAN FACTOR XIIIA INHIBITORS FOR TREATMENT OF THROMBOEMBOLIC DISEASES” (Xavier University of Louisiana, priority 2022, published 2024).
